US20210003556A1, “IMPROVING ANTI-PD-1 CANCER THERAPY” (Mayo Foundation for Medical Education and Research, priority 2018, published 2021)

Legend:
CX3CR1^+ CD8^+ T cells [1] = assay type: cell-based, human
Method: FIG. 7 is a graph plotting CX3CR1^+ CD8^+ and CX3CR1^− CD8^+ T cell survival during treatment with doxorubicin (Dox) in vitro. […] N=4 donors.
(§1) Stimulation and culture of human T cells: Human CD8^+ T cells were purified using a human CD8^+ T cell enrichment kit (Stemcell). CD8^+ T cells were incubated with chemotherapy drugs (paclitaxel, carboplatin, or doxorubicin), either alone or with T cell activators (DYNABEADS®, human T-activator CD3/CD28 beads) for 24-48 hours, followed with staining for CX3CR1 and Granzyme B. ABCB1 inhibitor PGP4008 was purchased from Enzo Life Sciences (Farmingdale, N.Y.).
To determine the effect of chemotherapeutic treatment on survival of CX3CR1^+ and CX3CR1^− CD8^+ T cells, subsets of these cells were isolated, placed in 96 well plates at 2×10^5 cells/well, and incubated with doxorubicin (Dox) at 0.5 μg/ml for 40 hours.

CX3CR1^+ CD8^+ T cells [2] = assay: CTL function (CD107a expression, IFN-γ production) of CD8+ T cells with ABCB1 inhibitor with or without CP; assay type: cell-based, human; conditions: anti-CD3/CD28 beads 24 hours
Method: as §1
Since the pharmacodynamics of doxorubicin may not be able to exactly reflect the efflux of carboplatin and paclitaxel (CP), and these drugs cannot be directly tracked due to lack of fluorescent capability, the impact of the drug transporter inhibitor on the function of T cells in the presence of CP was examined to determine whether T cell function might be dampened due to the reduced ability of T cells to efflux CP. ABCB1 transporter inhibitor (PGP4008) was incubated with resting or activated human primary CD8^+ T cells in vitro in the presence of CP. T cell function was measured by based pm degranulation (CD107a expression) and intracellular IFN-γ production.

CX3CR1^+ CD8^+ T cells [3] = assay: IL-15 treatment of human PBMC in vitro (proliferation/expansion of CX3CR1+ CD8+ T cells); assay type: cell-based
Method: FIG. 8A is a flow cytometry plot showing representative CD122 expression by CX3CR1^+ CD8^+ T cells. FIG. 8B is a graph plotting CD122 expression by CX3CR1^+ and CX3CR1^− CD8^+ T cells in PBMC after incubation with PHA-L for 48 hours. […] FIG. 8C is a graph plotting proliferation of CX3CR1^+ CD8^+ T cells treated in vitro with human IL-15 for 48 hours.
FIG. 9 is a graph plotting % CX3CR1^+ Granzyme CD8^+ T cells among human peripheral blood mononuclear cells (PBMC) cultured with graded concentrations of rh-IL-15 for 24 hours in vitro.
For at least a couple of reasons, IL-15 may improve anti-PD-1 therapy for non-responsive tumors. First, the transcription of CD122 (IL-2 receptor beta) was increased in CD11a^high CD8^+ T cells in responders 25 compared to non-responders (FIG. 1B). […] Further, human PBMC were incubated with human IL-15 (10 ng/ml) or anti-CD3/CD28 beads for 48 hours, and proliferation of CX3CR1^+ CD8^+ T cells was assessed based on % Ki67^+ cells.
To test whether IL-15 directly contributes to the expansion of CX3CR1^+ Granzyme B^+ CD8^+ T cells, human recombinant IL-15 was incubated for 24 hours with PBMC isolated from healthy human donors, followed by flow cytometry analysis of CX3CR1^+ Granzyme B^+ CD8^+ T cells. […] Thus, IL-15 may improve the efficacy of PD-1 ICI therapy by expanding CX3CR1^+ Granzyme B^+ CD8^+ T cells that are capable of rejecting tumors.

Bim^+ CD8^+ T cells = assay: % Bim+ CD8+ T cells in peripheral blood of metastatic melanoma patients after PD-1 ICI therapy; assay type: in vivo, human; conditions: 12 weeks after anti-PD-1 therapy; responders vs non-responders, first cohort
From the text: FIGS. 15A to 15D illustrate changes in Bim^+ CD8^+ T cells in response to PD-1 ICI therapy in patients with MM. FIG. 15A is a graph plotting percentages of changes in the frequency (%) of Bim^+ CD8^+ T cells in MM patients with progressive diseases (P, n=7) and responders (R, n=6) at 12-weeks after PD-1 therapy. **P<0.01, error bars, median with interquartile ranges. FIG. 15B is a series of images of metastatic melanoma (white arrows) in one patient with pseudo-progression at 12 weeks after PD-1 therapy. FIG. 15C is a graph plotting % Bim^+ CD8^+ T cells of the patient of FIG. 15B at baseline, 12 weeks, and 16 weeks after PD-1 therapy. FIG. 15D is a graph plotting the % change of Bim^+ CD8^+ T cells in a second cohort of melanoma patients (total 38) at 12 weeks after PD-1 therapy.
Further studies were conducted to examine and compare the frequency of Bim^+ cells among circulating CD11a^high CD8^+ T cells, since this population of T cells is enriched with tumor-reactive T cells (Liu et al., Oncoimmunology, 2013, 2:e23972). […] In addition, Bim levels (MFI) were positively correlated with PD-1 levels among CD11a^high CD8^+ T cells of cancer patients (FIG. 14B, P<0.01; Duraiswamy et al., J Immunol, 2011, 186:4200-4212). […] Therefore, measurement of the frequency of Bim^+ CD8^+ T cells can be used to the degree to which PD-1 signals have been blocked in cancer patients. […]

metastatic melanoma = assay: Salvage chemotherapy added to anti-PD-1 in metastatic melanoma patients who failed PD-1 blockade; assay type: in vivo, human; conditions: BRAF wild-type metastatic melanoma; pembrolizumab alone, then carboplatin and paclitaxel added, assessed three weeks after the combination
Method: FIGS. 2A to 2C show patient responses to CIT with an increase of CX3CR1^+ Granzyme B^+ CD8^+ T cells. […] Given the disease progression while on pembrolizumab, paclitaxel, and carboplatin (white arrows) were initiated at 175 mg/m^2 and an AUC (area under curve) of 5 every 3 weeks for 2 cycles in combination with pembrolizumab. The patient received total of 12 cycles of pembrolizumab at the end of the follow up. FIG. 2B is a pair of flow cytometry plots showing CX3CR1 levels pre- and post-chemo, as indicated. Following the same schedule of treatment as in FIG. 2A, blood samples were collected for flow analysis of CX3CR1^+ Granzyme B^+ among CD11a^highCD8^+ T cells. […]
Patient information: The studies described herein were conducted according to Declaration of Helsinki principles. […] Response to treatment was evaluated according to standard clinical practice guidelines using Response Evaluation Criteria In Solid Tumors (RECIST) criteria. […]
The frequency of CX3CR1^+ Granzyme B^+ CD8^+ tumor-reactive T cells was examined before and after chemotherapy combined with anti-PD-1 therapy in patients with metastatic melanoma. […] The frequency of CX3CR1^+ Granzyme B^+ cells also was measured and compared in other responders and non-responders prior to and after chemotherapy. […]

For `O=C(Cc1ccccc1)Nc1c2c(nc3ccccc13)N(Cc1ccccc1)CC2` [PGP4008], the “apoptosis of CX3CR1+ CD8+ T cells after addition of ABCB1 inhibitor” value (CX3CR1^+ CD8^+ T cells [1]; cultured with Doxorubicin 0.5 μg/ml for 40 hours plus PGP4008) was “increased apoptosis”, the “function of CX3CR1+ CD8+ T cells (CD107a expression, IFN-γ production)” value (CX3CR1^+ CD8^+ T cells [2]; in the absence of CP) was “not in the absence of CP” and the “function of CX3CR1+ CD8+ T cells (CD107a expression, IFN-γ production)” value (CX3CR1^+ CD8^+ T cells [2]; in the presence of CP (carboplatin and paclitaxel)) was “significantly inhibited the function”.

With `COc1cccc2c1C(=O)c1c(O)c3c(c(O)c1C2=O)C[C@@](O)(C(=O)CO)C[C@@H]3O[C@H]1C[C@H](N)[C@H](O)[C@H](C)O1` [doxorubicin] the “apoptosis (Annexin V) of CD8+ T cells” value (CX3CR1^+ CD8^+ T cells [1]; human, 40 h, 0.5 μg/ml) was “fewer CX3CR1^+ CD8^+ T cells (efflux cells) than CX3CR1^− CD8^+ T cells (non-efflux cells) underwent apoptosis” and the “percentage of Dox+/annexin V low (live) cells” value (CX3CR1^+ CD8^+ T cells [1]; human, 40 h, 0.5 μg/ml) was “higher in the CX3CR1^+ subset of CD8^+ T cells than in the CX3CR1^− CD8^+ subset”.

For “human IL-15: human recombinant interleukin-15”, the “expansion of CX3CR1+ Granzyme B+ CD8+ T cells among PBMC” value (CX3CR1^+ CD8^+ T cells [3]; graded concentrations of rh-IL-15, 24 hours, healthy human donors) was “significantly increased the expansion” and the “proliferation of CX3CR1+ CD8+ T cells (% Ki67+ cells)” value (CX3CR1^+ CD8^+ T cells [3]; human PBMC, human IL-15 10 ng/ml, 48 hours) was “increased proliferation”.

pembrolizumab: anti-PD-1 antibody was tested, and the “% Bim+ CD8+ T cells” value (Bim^+ CD8^+ T cells) was “significantly decreased in responders compared to non-responders” and the “disease status (PET/CT) in one patient” value (metastatic melanoma) was “rapid progression of metastatic melanoma in the peritoneum and liver”.
